Results: patent publication US8669249B2, “Poly (ADP-ribose) polymerase (PARP) inhibitors” (Takeda Pharmaceutical Company Limited, priority 2009, dated 2014)

Biological target: T1, catalytic domain of Human PARP (Homo sapiens, UniProt P09874)
T1 construct: The catalytic domain of Human PARP was cloned and prepared; made in house
Assay: Biacore surface plasmon resonance affinity assay
Type: binding
Conditions: pKD=-log10 KD, KD in mol/L; Biacore T100, 25° C.; read-out: pKD (converted)
Procedure: Dissociation Constant (KD) from Surface Plasmon Resonance
The catalytic domain of Human PARP was cloned and prepared as described in Kinoshita, et al. FEBS Letters (2006), 556:43-46. Purified enzyme was stored at −80° C. in 25 mM Tris(hydroxymethyl)aminomethane (‘Tris’) pH 7.4, 150 mM NaCl, 2 mM dithiothreitol (DTT) at a concentration of 6 mg/mL.
Biacore affinity assays for test compounds were conducted on a Biacore T100 (GE Healthcare) as follows. A Series S Sensor Chip CM5 (part number BR-1006-68, GE Healthcare) was activated for amide coupling with an Amine Coupling Kit (part number BR-1000-50, GE Healthcare) as described by the manufacturer. The mobile phase buffer consisted of Biacore buffer HBS-P (part number BR-1003-68, GE Healthcare) supplemented with 1% v/v dimethylsulfoxide (DMSO), 0.5 mM Tris(2-carboxyethyl)phosphine hydrochloride (TCEP), and 5 mM MgCl2. Enzyme samples (2 μL/6 mg/mL) stored at −80° C. were diluted to 0.080 mg/mL with 10 mM 4-morpholineethanesulfonic acid (MES) pH 6.5 and then mounted on the activated Biacore CM5 chip at a flow rate of 10 μL/min for 240 seconds. […] Test compounds were diluted 9 times 2-fold serially in mobile phase buffer (listed above) at 1% v/v DMSO final to generate a concentration gradient bracketing their anticipated KDs. Biacore mounted PARP was given a 1 minute exposure (association phase) to various concentrations of test compounds to observe a steady state equilibrium or an on-rate. The exposure was followed with a dissociation phase of 5 minutes. The association and dissociation phases were at a flow rate of 50 μL/min and a temperature of 25° C.
Parameters Rmax (response at saturation) and KD (binding constant) were calculated through a nonlinear least squares fitting of the equation to the data by use of the Biacore T100 analysis software.
Parameter optimization was through a nonlinear least squares analysis of the association phase Response=Rmax*(1−exp(−(kon[cmpd]+koff)*t)) and dissociation phase Response=[…] by use of the Biacore T100 analysis software. The binding constant KD was calculated from the definition KD=koff/kon

T1 sequence (P09874 788-1014 limits assumed): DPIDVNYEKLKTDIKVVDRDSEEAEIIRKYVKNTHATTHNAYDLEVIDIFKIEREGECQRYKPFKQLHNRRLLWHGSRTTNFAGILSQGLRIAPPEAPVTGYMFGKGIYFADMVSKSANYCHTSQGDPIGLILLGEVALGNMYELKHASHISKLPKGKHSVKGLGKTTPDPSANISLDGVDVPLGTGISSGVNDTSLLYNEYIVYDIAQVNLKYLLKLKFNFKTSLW

Row | SMILES | Kd
1 | Cc1ccc2c(c1)CCCN2Cc1ccc2c(c1)NC(=O)C(C)O2 (stereo not shown) [Compound 83, 2-Methyl-6-((6-methyl-3,4-dihydroquinolin-1(2H)-yl)methyl)-2H-benzo[b][1,4]oxazin-3(4H)-one] | > 10 µM
2 | O=C1Nc2cc(CN3CCN(c4nc5ccccc5[nH]4)CC3)ccc2OC1F (stereo not shown) [Compound 99, 6-((4-(1H-Benzo[d]imidazol-2-yl)piperazin-1-yl)methyl)-2-fluoro-2H-benzo[b][1,4]oxazin-3(4H)-one] | 0.126 to 1 µM
3 | CC1Oc2cc(CN3CCN(c4ccncc4)CC3)ccc2NC1=O (stereo not shown) [Compound 202, 2-Methyl-7-((4-(pyridin-4-yl)piperazin-1-yl)methyl)-2H-benzo[b][1,4]oxazin-3(4H)-one] | ≥ 100 µM
4 | CC1Oc2ccc(CN(C)Cc3ccccc3)cc2NC1=O (stereo not shown) [Compound 64, 6-((Benzyl(methyl)amino)methyl)-2-methyl-2H-benzo[b][1,4]oxazin-3(4H)-one] | 12.6 to 79.4 µM
5 | CC1Oc2ccc(CN3CCN(c4ccc(C(=O)O)cc4)CC3)cc2NC1=O (stereo not shown) [Compound 50, 4-(4-((2-Methyl-3-oxo-3,4-dihydro-2H-benzo[b][1,4]oxazin-6-yl)methyl)piperazin-1-yl)benzoic acid] | 0.0126 to 0.1 µM
6 | Cc1ccc(C2CCN(Cc3ccc4c(c3)NC(=O)C(C)O4)CC2)cc1 (stereo not shown) [Compound 36, 2-Methyl-6-((4-p-tolylpiperidin-1-yl)methyl)-2H-benzo[b][1,4]oxazin-3(4H)-one] | 0.126 to 1 µM
7 | COC(=O)c1cccc(C2CCN(Cc3ccc4c(c3)NC(=O)C(C)O4)CC2)c1 (stereo not shown) [Compound 212, Methyl 3-(1-((2-methyl-3-oxo-3,4-dihydro-2H-benzo[b][1,4]oxazin-6-yl)methyl)piperidin-4-yl)benzoate] | ≥ 100 µM
8 | O=C1COc2ccc(CN3CCC(c4ccccc4)CC3)cc2N1 [Compound 25, 6-((4-Phenylpiperidin-1-yl)methyl)-2H-benzo[b][1,4]oxazin-3(4H)-one] | 0.126 to 1 µM
9 | COCCNC(=O)CN1CCN(Cc2ccc3c(c2)NC(=O)C(C)O3)CC1 (stereo not shown) [Compound 177, N-(2-Methoxyethyl)-2-(4-((2-methyl-3-oxo-3,4-dihydro-2H-benzo[b][1,4]oxazin-6-yl)methyl)piperazin-1-yl)acetamide] | > 10 µM
10 | CC1Oc2cc(CN3CCN(c4ccccc4O)CC3)ccc2NC1=O (stereo not shown) [Compound 209, 7-((4-(2-Hydroxyphenyl)piperazin-1-yl)methyl)-2-methyl-2H-benzo[b][1,4]oxazin-3(4H)-one] | 12.6 to 79.4 µM
11 | CC1Oc2ccc(CN(C)CCc3ccccc3)cc2NC1=O (stereo not shown) [Compound 85, 2-Methyl-6-((methyl(phenethyl)amino)methyl)-2H-benzo[b][1,4]oxazin-3(4H)-one] | 1.26 to 10 µM
12 | CC1Oc2ccc(CN3CCC(c4ccccc4N)CC3)cc2NC1=O (stereo not shown) [Compound 211, 6-((4-(2-Aminophenyl)piperidin-1-yl)methyl)-2-methyl-2H-benzo[b][1,4]oxazin-3(4H)-one] | ≥ 100 µM
13 | CCC1Oc2ccc(CN3CCC(c4ccc(Cl)cc4)CC3)cc2NC1=O (stereo not shown) [Compound 194, 6-((4-(4-Chlorophenyl)piperidin-1-yl)methyl)-2-ethyl-2H-benzo[b][1,4]oxazin-3(4H)-one] | ≥ 100 µM
14 | CC1Oc2cc(CN3CC[C@H](c4ccccc4)C3)ccc2NC1=O (stereo partly drawn) [Compound 93, 2-Methyl-7-(((R)-3-phenylpyrrolidin-1-yl)methyl)-2H-benzo[b][1,4]oxazin-3(4H)-one] | 1.26 to 10 µM
15 | CC1Oc2cc(CN3CCCC(c4ccccc4)C3)ccc2NC1=O (stereo not shown) [Compound 95, 2-Methyl-7-((3-phenylpiperidin-1-yl)methyl)-2H-benzo[b][1,4]oxazin-3(4H)-one] | 1.26 to 10 µM
16 | CC1Oc2cc(CN3CCC(c4ccc(Cl)cc4)CC3)ccc2NC1=O (stereo not shown) [Compound 200, 7-((4-(4-Chlorophenyl)piperidin-1-yl)methyl)-2-methyl-2H-benzo[b][1,4]oxazin-3(4H)-one] | 12.6 to 79.4 µM
17 | CC1Oc2ccc(CN3CCC(c4cccc(C(=O)O)c4)CC3)cc2NC1=O (stereo not shown) [Compound 215, 3-(1-((2-Methyl-3-oxo-3,4-dihydro-2H-benzo[b][1,4]oxazin-6-yl)methyl)piperidin-4-yl)benzoic acid] | ≥ 100 µM
18 | CC(=O)Nc1ccc(-c2ccc3c(c2)NC(=O)C(C)O3)cc1 (stereo not shown) [Compound 155, N-(4-(2-Methyl-3-oxo-3,4-dihydro-2H-benzo[b][1,4]oxazin-6-yl)phenyl)acetamide] | > 10 µM
19 | CC1Oc2ccc(CNCc3ccccc3)cc2NC1=O (stereo not shown) [Compound 32, 6-((Benzylamino)methyl)-2-methyl-2H-benzo[b][1,4]oxazin-3(4H)-one] | 1.26 to 10 µM

Row | SMILES | Kd
20 | CC1Oc2ccc(S(=O)(=O)N3CCC(c4ccccc4)CC3)cc2NC1=O (stereo not shown) [Compound 121, 2-Methyl-6-(4-phenylpiperidin-1-ylsulfonyl)-2H-benzo[b][1,4]oxazin-3(4H)-one] | > 1 µM
21 | C=CCNC(=O)CN1CCN(Cc2ccc3c(c2)NC(=O)C(C)O3)CC1 (stereo not shown) [Compound 174, N-Allyl-2-(4-((2-methyl-3-oxo-3,4-dihydro-2H-benzo[b][1,4]oxazin-6-yl)methyl)piperazin-1-yl)acetamide] | 1.26 to 10 µM
22 | CC1Oc2ccc(CN3CCC(c4ccc(Cl)cc4)CC3)cc2NC1=O (stereo not shown) [Compound 38, 6-((4-(4-Chlorophenyl)piperidin-1-yl)methyl)-2-methyl-2H-benzo[b][1,4]oxazin-3(4H)-one] | ≤ 0.01 µM
23 | O=C1COc2ccc(C(=O)CN3CCC(c4ccccc4)CC3)cc2N1 [Compound 114, 6-(2-(4-Phenylpiperidin-1-yl)acetyl)-2H-benzo[b][1,4]oxazin-3(4H)-one] | 12.6 to 79.4 µM
24 | CNC(=O)c1ccc(-c2ccc3c(c2)NC(=O)C(C)O3)cc1 (stereo not shown) [Compound 151, N-Methyl-4-(2-methyl-3-oxo-3,4-dihydro-2H-benzo[b][1,4]oxazin-6-yl)benzamide] | > 10 µM
25 | CC1Oc2ccc(CN3CCC(c4ccccc4)CC3)cc2NC1=O (stereo not shown) [Compound 31, 2-Methyl-6-((4-phenylpiperidin-1-yl)methyl)-2H-benzo[b][1,4]oxazin-3(4H)-one] | 0.0126 to 0.1 µM
26 | CC1Oc2cc(CN3CCC(c4ccc(C(=O)O)cc4)CC3)ccc2NC1=O (stereo not shown) [Compound 210, 4-(1-((2-Methyl-3-oxo-3,4-dihydro-2H-benzo[b][1,4]oxazin-7-yl)methyl)piperidin-4-yl)benzoic acid] | 12.6 to 79.4 µM
27 | CC1Oc2ccc(CN3CCN(c4nc(-c5ccccc5)ns4)CC3)cc2NC1=O (stereo not shown) [Compound 39, 2-Methyl-6-((4-(3-phenyl-1,2,4-thiadiazol-5-yl)piperazin-1-yl)methyl)-2H-benzo[b][1,4]oxazin-3(4H)-one] | > 10 µM
28 | COC(=O)CN1CCN(Cc2ccc3c(c2)NC(=O)C(C)O3)CC1=O (stereo not shown) [Compound 78, Methyl 2-(4-((2-methyl-3-oxo-3,4-dihydro-2H-benzo[b][1,4]oxazin-6-yl)methyl)-2-oxopiperazin-1-yl)acetate] | 1.26 to 10 µM
29 | CCOC(=O)CN(C)Cc1ccc2c(c1)NC(=O)C(C)O2 (stereo not shown) [Compound 88, Ethyl 2-(methyl((2-methyl-3-oxo-3,4-dihydro-2H-benzo[b][1,4]oxazin-6-yl)methyl)amino)acetate] | 12.6 to 79.4 µM
30 | CC1Oc2ccc(-c3cccc(C(=O)O)c3)cc2NC1=O (stereo not shown) [Compound 141, 3-(2-methyl-3-oxo-3,4-dihydro-2H-benzo[b][1,4]oxazin-6-yl)benzoic acid] | 1.26 to 10 µM
31 | CCNC(=O)c1cccc(-c2ccc3c(c2)NC(=O)C(C)O3)c1 (stereo not shown) [Compound 144, N-Ethyl-3-(2-methyl-3-oxo-3,4-dihydro-2H-benzo[b][1,4]oxazin-6-yl)benzamide] | 12.6 to 79.4 µM
32 | O=C1COc2ccc(CCN3CCC(c4ccccc4)CC3)cc2N1 [Compound 125, 6-(2-(4-Phenylpiperidin-1-yl)ethyl)-2H-benzo[b][1,4]oxazin-3(4H)-one] | 12.6 to 79.4 µM
33 | CN(C)C1CCN(Cc2ccc3c(c2)NC(=O)CO3)CC1 [Compound 24, 6-((4-(Dimethylamino)piperidin-1-yl)methyl)-2H-benzo[b][1,4]oxazin-3(4H)-one] | 12.6 to 79.4 µM
34 | CC1Oc2cc(CN(C)CCc3ccccc3)ccc2NC1=O (stereo not shown) [Compound 91, 2-Methyl-7-((methyl(phenethyl)amino)methyl)-2H-benzo[b][1,4]oxazin-3(4H)-one] | 1.26 to 10 µM
35 | CC1Oc2ccc(-c3ccc(C(N)=O)cc3)cc2NC1=O (stereo not shown) [Compound 150, 4-(2-Methyl-3-oxo-3,4-dihydro-2H-benzo[b][1,4]oxazin-6-yl)benzamide] | > 10 µM
36 | O=C1COc2ccc(CCN3CCN(c4ccncc4)CC3)cc2N1 [Compound 128, 6-(2-(4-(Pyridin-4-yl)piperazin-1-yl)ethyl)-2H-benzo[b][1,4]oxazin-3(4H)-one] | 12.6 to 79.4 µM
37 | CC1Oc2ccc(CN3CCC(CCO)CC3)cc2NC1=O (stereo not shown) [Compound 87, 6-((4-(2-Hydroxyethyl)piperidin-1-yl)methyl)-2-methyl-2H-benzo[b][1,4]oxazin-3(4H)-one] | 1.26 to 10 µM
